# Experimental data published in patent EP0041644B1 (priority 1980, dated 1981).
# Legend:
# Format in all cases: in vivo, mice
# B16 Melanoma [1] = assay: B16 Melanoma - Test 2 (ip tumor brei); conditions: QD +9
# B16 Melanoma [2] = assay: B16 Melanoma - Test 3 (sc trocar fragments)
# Lewis Lung Carcinoma = Lewis Lung Carcinoma - Test 1 (ip, delayed therapy)
structure (smiles),measurement,setting,value
"N.N.[Cl][Pt][Cl] [Cis-DDP, cis-diammine dichloroplatinum (II)]",Effect MST % T/C,B16 Melanoma [1]; 0.4 mg/kg/day ip,121 % T/C
same,MST Days,B16 Melanoma [1]; 0.4 mg/kg/day ip,25.0 days
same,Average Weight Change,B16 Melanoma [1]; 0.8 mg/kg/day ip,-1.5 g
same,Effect MST % T/C,B16 Melanoma [1]; 0.8 mg/kg/day ip,139 % T/C
same,MST Days,B16 Melanoma [1]; 0.8 mg/kg/day ip,38.5 days
same,Average Weight Change,B16 Melanoma [1]; 1.6 mg/kg/day ip,-2.7 g
same,Effect MST % T/C,B16 Melanoma [1]; 1.6 mg/kg/day ip,173 % T/C
same,MST Days,B16 Melanoma [1]; 1.6 mg/kg/day ip,35.5 days
same,Survivors Day 10 (60),B16 Melanoma [1]; 0.4 mg/kg/day ip,8/10
same,Survivors Day 10 (60),B16 Melanoma [1]; 0.8 mg/kg/day ip,10/10
same,Survivors Day 10 (60),B16 Melanoma [1]; 1.6 mg/kg/day ip,10/10
same,Average Weight Change,"B16 Melanoma [2]; 0.8 mg/kg/inj ip, qd 1→9",-0.4 g
same,Effect MST %TC,"B16 Melanoma [2]; 0.8 mg/kg/inj ip, qd 1→9",113 %TC
same,MST Days,"B16 Melanoma [2]; 0.8 mg/kg/inj ip, qd 1→9",34.5 days
same,Average Weight Change,"B16 Melanoma [2]; 1.6 mg/kg/inj ip, qd 1→9",-2.4 g
same,Effect MST %TC,"B16 Melanoma [2]; 1.6 mg/kg/inj ip, qd 1→9",118 %TC
same,MST Days,"B16 Melanoma [2]; 1.6 mg/kg/inj ip, qd 1→9",36.0 days
same,Average Weight Change,"B16 Melanoma [2]; 2.4 mg/kg/inj ip, qd 1→9",-3.5 g
same,Effect MST %TC,"B16 Melanoma [2]; 2.4 mg/kg/inj ip, qd 1→9",97 %TC
same,MST Days,"B16 Melanoma [2]; 2.4 mg/kg/inj ip, qd 1→9",29.5 days
same,Average Weight Change,"B16 Melanoma [2]; 4 mg/kg/inj iv, d.1, 5 & 9",-0.6 g
same,Effect MST %TC,"B16 Melanoma [2]; 4 mg/kg/inj iv, d.1, 5 & 9",156 %TC
same,MST Days,"B16 Melanoma [2]; 4 mg/kg/inj iv, d.1, 5 & 9",47.5 days
same,Average Weight Change,"B16 Melanoma [2]; 6 mg/kg/inj iv, d.1, 5 & 9",-2.2 g
same,Effect MST %TC,"B16 Melanoma [2]; 6 mg/kg/inj iv, d.1, 5 & 9",131 %TC
same,MST Days,"B16 Melanoma [2]; 6 mg/kg/inj iv, d.1, 5 & 9",40.0 days
same,Average Weight Change,"B16 Melanoma [2]; 8 mg/kg/inj iv, d.1, 5 & 9",-2.8 g
same,Effect MST %TC,"B16 Melanoma [2]; 8 mg/kg/inj iv, d.1, 5 & 9",125 %TC
same,MST Days,"B16 Melanoma [2]; 8 mg/kg/inj iv, d.1, 5 & 9",38.0 days
same,Survivors Day 10 (60),"B16 Melanoma [2]; 8 mg/kg/inj iv, d.1, 5 & 9",9/10
same,T/C,"B16 Melanoma [2]; given ip, sc-implanted B16 melanoma",inactive
same,maximum T/C,"B16 Melanoma [2]; given iv, sc-implanted B16 melanoma",156%
same,"Av. Wt. Change,g Day 9","Lewis Lung Carcinoma; 0.4 mg/kg/inj ip, qd 5→13",-0.4 g
same,Effect MST %TC,"Lewis Lung Carcinoma; 0.4 mg/kg/inj ip, qd 5→13",124 %TC
same,MST Days,"Lewis Lung Carcinoma; 0.4 mg/kg/inj ip, qd 5→13",15.5 days
same,"Av. Wt. Change,g Day 9","Lewis Lung Carcinoma; 0.8 mg/kg/inj ip, qd 5→13",-0.6 g
same,Effect MST %TC,"Lewis Lung Carcinoma; 0.8 mg/kg/inj ip, qd 5→13",136 %TC
same,MST Days,"Lewis Lung Carcinoma; 0.8 mg/kg/inj ip, qd 5→13",17.0 days
same,"Av. Wt. Change,g Day 9","Lewis Lung Carcinoma; 1.6 mg/kg/inj ip, qd 5→13",-1.8 g
same,Effect MST %TC,"Lewis Lung Carcinoma; 1.6 mg/kg/inj ip, qd 5→13",184 %TC
same,MST Days,"Lewis Lung Carcinoma; 1.6 mg/kg/inj ip, qd 5→13",23.0 days
same,"Av. Wt. Change,g Day 9","Lewis Lung Carcinoma; 2 mg/kg/inj ip, d. 5, 9&13",+0.8 g
same,Effect MST %TC,"Lewis Lung Carcinoma; 2 mg/kg/inj ip, d. 5, 9&13",152 %TC
same,MST Days,"Lewis Lung Carcinoma; 2 mg/kg/inj ip, d. 5, 9&13",19.0 days
same,"Av. Wt. Change,g Day 9","Lewis Lung Carcinoma; 2 mg/kg/inj iv, d. 5,9&13",+0.6 g
same,Effect MST %TC,"Lewis Lung Carcinoma; 2 mg/kg/inj iv, d. 5,9&13",104 %TC
same,MST Days,"Lewis Lung Carcinoma; 2 mg/kg/inj iv, d. 5,9&13",13.0 days
same,"Av. Wt. Change,g Day 9","Lewis Lung Carcinoma; 2.4 mg/kg/inj ip, qd 5→13",-2.4 g
same,Effect MST %TC,"Lewis Lung Carcinoma; 2.4 mg/kg/inj ip, qd 5→13",212 %TC
same,MST Days,"Lewis Lung Carcinoma; 2.4 mg/kg/inj ip, qd 5→13",26.5 days
same,"Av. Wt. Change,g Day 9","Lewis Lung Carcinoma; 4 mg/kg/inj ip, d. 5, 9&13",-0.3 g
same,Effect MST %TC,"Lewis Lung Carcinoma; 4 mg/kg/inj ip, d. 5, 9&13",168 %TC
same,MST Days,"Lewis Lung Carcinoma; 4 mg/kg/inj ip, d. 5, 9&13",21.0 days
same,"Av. Wt. Change,g Day 9","Lewis Lung Carcinoma; 4 mg/kg/inj iv, d. 5,9&13",-0.7 g
same,Effect MST %TC,"Lewis Lung Carcinoma; 4 mg/kg/inj iv, d. 5,9&13",120 %TC
same,MST Days,"Lewis Lung Carcinoma; 4 mg/kg/inj iv, d. 5,9&13",15.0 days
same,"Av. Wt. Change,g Day 9","Lewis Lung Carcinoma; 6 mg/kg/inj ip, d. 5, 9&13",-0.8 g
same,Effect MST %TC,"Lewis Lung Carcinoma; 6 mg/kg/inj ip, d. 5, 9&13",220 %TC
same,MST Days,"Lewis Lung Carcinoma; 6 mg/kg/inj ip, d. 5, 9&13",27.5 days
same,"Av. Wt. Change,g Day 9","Lewis Lung Carcinoma; 6 mg/kg/inj iv, d. 5,9&13",-1.1 g
same,Effect MST %TC,"Lewis Lung Carcinoma; 6 mg/kg/inj iv, d. 5,9&13",108 %TC
same,MST Days,"Lewis Lung Carcinoma; 6 mg/kg/inj iv, d. 5,9&13",13.5 days
same,"Av. Wt. Change,g Day 9","Lewis Lung Carcinoma; 8 mg/kg/inj ip, d. 5, 9&13",-2.7 g
same,Effect MST %TC,"Lewis Lung Carcinoma; 8 mg/kg/inj ip, d. 5, 9&13",128 %TC
same,MST Days,"Lewis Lung Carcinoma; 8 mg/kg/inj ip, d. 5, 9&13",16.0 days
same,"Av. Wt. Change,g Day 9","Lewis Lung Carcinoma; 8 mg/kg/inj iv, d. 5,9&13",-0.7 g
same,Effect MST %TC,"Lewis Lung Carcinoma; 8 mg/kg/inj iv, d. 5,9&13",112 %TC
same,MST Days,"Lewis Lung Carcinoma; 8 mg/kg/inj iv, d. 5,9&13",14.0 days
same,Survivors Day 9(48),"Lewis Lung Carcinoma; 0.4 mg/kg/inj ip, qd 5→13",6/6
same,Survivors Day 9(48),"Lewis Lung Carcinoma; 0.8 mg/kg/inj ip, qd 5→13",5/6
same,Survivors Day 9(48),"Lewis Lung Carcinoma; 1.6 mg/kg/inj ip, qd 5→13",6/6
same,Survivors Day 9(48),"Lewis Lung Carcinoma; 2 mg/kg/inj ip, d. 5, 9&13",6/6
same,Survivors Day 9(48),"Lewis Lung Carcinoma; 2 mg/kg/inj iv, d. 5,9&13",6/6
same,Survivors Day 9(48),"Lewis Lung Carcinoma; 2.4 mg/kg/inj ip, qd 5→13",6/6
same,Survivors Day 9(48),"Lewis Lung Carcinoma; 4 mg/kg/inj ip, d. 5, 9&13",6/6
same,Survivors Day 9(48),"Lewis Lung Carcinoma; 4 mg/kg/inj iv, d. 5,9&13",6/6
same,Survivors Day 9(48),"Lewis Lung Carcinoma; 6 mg/kg/inj ip, d. 5, 9&13",6/6
same,Survivors Day 9(48),"Lewis Lung Carcinoma; 6 mg/kg/inj iv, d. 5,9&13",6/6
same,Survivors Day 9(48),"Lewis Lung Carcinoma; 8 mg/kg/inj ip, d. 5, 9&13",6/6
same,Survivors Day 9(48),"Lewis Lung Carcinoma; 8 mg/kg/inj iv, d. 5,9&13",6/6
same,maximum T/C,"Lewis Lung Carcinoma; given ip, therapy from day 5",212-220%
same,T/C,"Lewis Lung Carcinoma; given iv, therapy from day 5",inactive
